On the set-up of the series: species or system male C57BL/6 mice. The following applies: mouse, in vivo.

The structures appear in SMILES notation.

As for `CCCCCCCCCCCCCCCCCCN1/C(=C/C=C/C=C/C=C/C2=[N+](CCCCCCCCCCCCCCCCCC)c3ccccc3C2(C)C)C(C)(C)c2ccccc21.[I-]` [free DiR, 1,1-dioctadecyl-3,3,3′,3′-tetramethylindotricarbocyanine-iodide], the Visible abnormality entry is on record as “No visible abnormality”.

The record behind these values is patent publication US20210030829A1, “METHODS FOR TREATMENT OF CANCER AND ENHANCEMENT OF NANOPARTICLE ACCUMULATION IN TISSUES” (University of Louisville Research Foundation, Inc., priority 2018, published 2021).
